# Assay results as given in patent publication US8592375B2, “Multifunctional context-activated protides and methods of use” (Los Angeles Biomedical Research Institute at Harbor-UCLA …, priority 2002, dated 2013).
# Where two headings read alike, the source gives them in different places. Where a SMILES comes first, the peptide text is derived from it.
# Assays:
# [1] = molecular target: T1, staphylococcal V8 protease (Staphylococcus aureus, UniProt P0C1U8); assay: Cleavage (activation) of PT-1 by purified V8 protease in vitro, followed by analytical RP-HPLC and AU-PAGE; format: biochemical, S. aureus; settings: in a time frame of minutes, fragments consistent with RP-1 and IL-8-like domains
# T1 construct: purchased Sigma Chemical Co
# T1 sequence (P0C1U8 69-336): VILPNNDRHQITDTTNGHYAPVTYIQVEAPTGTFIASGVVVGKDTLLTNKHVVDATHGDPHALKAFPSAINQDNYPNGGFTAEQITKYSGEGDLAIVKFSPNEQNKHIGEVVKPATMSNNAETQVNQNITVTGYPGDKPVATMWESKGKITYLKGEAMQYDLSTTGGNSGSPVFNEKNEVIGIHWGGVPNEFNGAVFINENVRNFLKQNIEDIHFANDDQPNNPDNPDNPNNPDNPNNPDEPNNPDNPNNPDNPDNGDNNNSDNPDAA
# [2] = test system: S. aureus strains ISP479C and ISP479R; format: cell-based
# Excerpt: (§1) In order to assess the antimicrobial properties of PT-1, a panel of well-characterized test pathogens was used that included S. aureus strains ISP479C and ISP479R as described by Dhawan et al., Infect. Immun. 66:[…] (1998); Candida albicans strains 36082 (ATCC type strain 36082)and 36082R as described by Yeaman et al., Infect. Immun. 64:1379-1384 (1996); Salmonella typhimurium strains m5996s and 14028s as described by Fields et al., Science 243:1059-62 (1989); Yeaman et al., 38th Interscience Conference on Antimicrobial Agents and Chemotherapy (ICAAC), San Diego, Calif., Abstract No. F-170 (1999); and Bacillus subtilis strain ATCC 6633 as described by Yeaman et al., Infect. Immun. 60:1202-1209 (1992), each of which is incorporated herein by reference in its entirety.
# A microtiter well assay was also performed as a complement to the radial diffusion assay described above. In this assay, PT-1, RP-1, or V8 protease (Sigma Chemical Co.) were serially diluted from 100 ug (range, 100-0.20 ug/ml) and individually assessed for antimicrobial activity against S. aureus strains ISP479C and ISP479R as described above. In addition, this assay allowed for the evaluation of antimicrobial activities of combinations of PT-1 and V8, in conditions of constant or dynamic dilution of one or both agents. This latter approach enabled the determination of static as well as dynamic fractional inhibitory concentrations (FICs) of PT-1 in the presence and absence of purified V8 protease.
# [3] = test system: all organisms except S. aureus (Candida albicans, Salmonella typhimurium, Bacillus subtilis); assay: Modified radial diffusion assay, test pathogens other than S. aureus; format: cell-based; settings: 5 ug per well, organisms that do not elaborate V8 protease
# Excerpt: as §1
# (§2) In order to compare the antimicrobial activities of PT-1 with those of RP-1 against a panel of test pathogens, radial diffusion assay and a microtiter well assay were utilized.
# (§3) Briefly, a modified radial diffusion assay was employed to compare the antimicrobial activities of PT-1 with RP-1 in a solid-phase matrix format. […] The assay plates were then incubated for 18 h at 37° C., after which zones of inhibition (in mm of diameter) were measured and recorded.
# [4] = test system: S. aureus strains ISP479C and ISP479R; assay: Modified radial diffusion assay, S. aureus strains; format: cell-based; settings: 5 ug per well, both S. aureus strains, regardless of intrinsic susceptibility or resistance
# Excerpt: as §1, §2, §3
smiles,measurement,setting,value
CC[C@H](C)[C@H](NC(=O)[C@H](CS)NC(=O)[C@H](CCC(N)=O)NC(=O)[C@H](CS)NC(=O)[C@H](CCCNC(=N)N)NC(=O)[C@H](CC(C)C)NC(=O)[C@H](CCC(=O)O)NC(=O)[C@H](CCCCN)NC(=O)[C@H](C)N)C(=O)N[C@@H](CCCCN)C(=O)N[C@H](C(=O)N[C@@H](Cc1ccc(O)cc1)C(=O)N[C@@H](CO)C(=O)N[C@@H](CCCCN)C(=O)N[C@@H](CCC(=O)O)C(=O)N[C@@H](C)C(=O)N[C@@H](CC(C)C)C(=O)N[C@@H](Cc1ccc(O)cc1)C(=O)N[C@@H](CCCCN)C(=O)N[C@@H](CCCCN)C(=O)N[C@@H](Cc1ccccc1)C(=O)N[C@@H](CCCCN)C(=O)N[C@@H](CCCCN)C(=O)N[C@@H](CCCCN)C(=O)N[C@@H](CC(C)C)C(=O)N[C@@H](CC(C)C)C(=O)N[C@@H](CCCCN)C(=O)N[C@@H](CO)C(=O)N[C@@H](CC(C)C)C(=O)N[C@@H](CCCCN)C(=O)N[C@@H](CCCNC(=N)N)C(=O)N[C@@H](CC(C)C)C(=O)NCC(=O)O)[C@@H](C)O [PT-1] (H-AKELRCQCIKTYSKEALYKKFKKKLLKSLKRLG-OH; N-terminus and C-terminus assumed),cleavage (activation) on exposure to purified V8 protease,[1],cleaved (activated) into two separate fragments
same,FIC (fractional inhibitory concentration),"[2]; PT-1 with V8 protease, considered synergistic",< 0.5
same,MIC,[2]; co-incubated with V8 protease,3.1 µg/mL
same,increased activity in the presence of purified V8 protease compared to its absence,[2]; with vs without purified V8 protease,≥ 2 fold
same,MIC,[2]; without V8 protease,12.5 µg/mL
same,antimicrobial activity compared with RP-1 (zones of inhibition),[3],substantially less antimicrobial activity than RP-1
same,antimicrobial activity (zones of inhibition),[4],activation and enhanced antimicrobial activity
